Assay results published in patent publication EP4268819A1 (priority 2022, dated 2023).
Where two headings read alike, the source gives them in different places.

Legend:
[1] = system: SARS-CoV-2 clinical omicron isolate
[2] = system: SARS-CoV-2 clinical omicron isolate; assay: microbe, parasite or virus in culture; conditions: Severe acute respiratory syndrome coronavirus 2, Calu-3

SMILES	Therapeutic range: CC50/IC50 (CTG) ([1]; SARS-CoV-2 omicron in Calu-3 cells, CC50 by CTG)	Therapeutic range: CC50/IC50 (IncuCyte) ([1]; SARS-CoV-2 omicron in Calu-3 cells, CC50 by IncuCyte)	Therapeutic range: CC50/IC50 (MTT) ([1]; SARS-CoV-2 omicron in Calu-3 cells, CC50 by MTT)	Therapeutic range: CC50/IC50 (CTG) ([1]; human, calu-3 cells)	Therapeutic range: CC50/IC50 (IncuCyte) ([1]; human, calu-3 cells)	Therapeutic range: CC50/IC50 (MTT) ([1]; human, calu-3 cells)	IC50 [2]
COc1[nH]c(=O)c(C(=O)[C@@H](C)C[C@H](C)[C@@H](Cl)CCl)c(O)c1OC [Atpenin A5, atpenin A5]	CTG: 1.3	IncuCyte: > 117.6	MTT: 1.8	–	–	–	–
[H]/N=C(/N)N/C(=N/[H])NCCc1ccccc1 [Phenformin]	–	–	–	CTG: 1674	IncuCyte: 1111	MTT: 1123	1350 nM
